Measured values reported in PubChem BioAssay (NCI).
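Cells were grown in 96-well plates and exposed to each compound for 48 hours at five concentrations; endpoints were interpolated linearly between bracketing concentrations, or set to the highest concentration if not reached. GI50 marks 50% less growth. TGI: total growth inhibition.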

How the values were obtained:
Experiment in all cases: NCI anticancer screen, dose series, 48 h; in the data active = GI50 below about 0.43 µM; inactive = the rest
[1] = tested on: A549 NSCLC
[2] = tested on: HL-60(TB) leukemia
[3] = tested on: K-562 leukemia
[4] = tested on: NCI-H226 lung
[5] = tested on: BT-549 breast
[6] = tested on: MALME-3M melanoma
[7] = tested on: SF-295 CNS
[8] = tested on: HT29 colon
[9] = tested on: LOX IMVI melanoma
[10] = tested on: NCI-H23 lung
[11] = tested on: SK-MEL-2 melanoma
[12] = tested on: MDA-MB-435
[13] = tested on: SR leukemia
[14] = tested on: SK-MEL-28 melanoma
[15] = tested on: RPMI-8226 leukemia
[16] = tested on: UO-31 renal
[17] = tested on: IGROV1 ovarian
[18] = tested on: DU-145 prostate
[19] = tested on: SNB-75 CNS
[20] = tested on: HOP-92 NSCLC
[21] = tested on: TK-10 renal
[22] = tested on: NCI/ADR-RES ovarian
[23] = tested on: SNB-19 CNS
[24] = tested on: UACC-257 melanoma
[25] = tested on: U251 CNS
[26] = tested on: SF-539 CNS
[27] = tested on: M14 melanoma
[28] = tested on: MOLT-4 leukemia
[29] = tested on: PC-3 prostate
[30] = tested on: COLO 205 colon
[31] = tested on: SN12C renal
[32] = tested on: EKVX NSCLC
[33] = tested on: OVCAR-3 ovarian
[34] = tested on: HCT-116 colon
[35] = tested on: ACHN renal
[36] = tested on: MDA-MB-468 breast
[37] = tested on: CAKI-1 renal
[38] = tested on: MCF7 breast
[39] = tested on: OVCAR-8 ovarian
[40] = tested on: UACC-62 melanoma
[41] = tested on: SF-268 CNS
[42] = tested on: HCT-15 colon
[43] = tested on: HOP-62 NSCLC
[44] = tested on: RXF 393 renal
[45] = tested on: MDA-MB-231 breast
[46] = tested on: CCRF-CEM leukemia
[47] = tested on: NCI-H460 lung
[48] = tested on: NCI-H522 lung
[49] = tested on: T-47D breast
[50] = tested on: SK-OV-3 ovarian
[51] = tested on: KM12 colon
[52] = tested on: OVCAR-4 ovarian
[53] = tested on: OVCAR-5 ovarian
[54] = tested on: A498 renal
[55] = tested on: SK-MEL-5 melanoma
[56] = tested on: HS 578T breast
[57] = tested on: 786-0 renal

CCOc1ccc(/C=N/NC(=O)Cn2nc(Cc3ccc([N+](=O)[O-])cc3)c3onc(C)c3c2=O)cc1
inactive: GI50 [1] 4.19 µM | GI50 [2] > 100 µM | GI50 [3] > 100 µM | GI50 [4] 2.43 µM | GI50 [5] 20.3 µM | GI50 [6] 6.71 µM | GI50 [7] 3.26 µM | GI50 [8] > 100 µM | GI50 [9] 5.34 µM | GI50 [10] 7.06 µM | GI50 [11] 13.8 µM | GI50 [12] > 100 µM | GI50 [13] > 100 µM | GI50 [14] 6.14 µM | GI50 [15] > 100 µM | GI50 [16] 3.45 µM | GI50 [17] 27.6 µM | GI50 [18] 11.2 µM | GI50 [19] 1.6 µM | GI50 [20] 2.41 µM | GI50 [21] 2.41 µM | GI50 [22] 6.53 µM | GI50 [23] 3.41 µM | GI50 [24] 69.9 µM | GI50 [25] 2.3 µM | GI50 [26] 3.1 µM | GI50 [27] 28.2 µM | GI50 [28] > 100 µM | GI50 [29] 6.35 µM | GI50 [30] > 100 µM | GI50 [31] > 100 µM | GI50 [32] > 100 µM | GI50 [33] 9.59 µM | GI50 [34] 3.21 µM | GI50 [35] 3.33 µM | GI50 [36] 3.35 µM | GI50 [37] 3.08 µM | GI50 [38] > 100 µM | GI50 [39] 10.1 µM | GI50 [40] 12.9 µM | GI50 [41] 5.75 µM | GI50 [42] > 100 µM | GI50 [43] 2.55 µM | GI50 [44] 2.57 µM | GI50 [45] 2.3 µM | GI50 [46] > 100 µM | GI50 [47] 4.37 µM | GI50 [48] 3.26 µM | GI50 [49] 2.57 µM | GI50 [50] 8.24 µM | GI50 [51] > 100 µM | GI50 [52] 3.26 µM | GI50 [53] > 100 µM | GI50 [54] 4.88 µM | GI50 [55] 6.85 µM | GI50 [56] 2.84 µM | GI50 [57] 2.47 µM
7.06 µM: TGI [25]
6.64 µM: TGI [57]
27.2 µM: TGI [50]
21 µM: TGI [54]
6.44 µM: TGI [45]
7.35 µM: TGI [44]
93.9 µM: TGI [40]
10.1 µM: TGI [26]
11 µM: TGI [35]
14.1 µM: TGI [23]
68.5 µM: TGI [41]
35.1 µM: TGI [10]
> 100 µM: TGI [1] | TGI [2] | TGI [3] | TGI [5] | TGI [8] | TGI [9] | TGI [12] | TGI [13] | TGI [14] | TGI [15] | TGI [16] | TGI [17] | TGI [18] | TGI [22] | TGI [24] | TGI [27] | TGI [28] | TGI [29] | TGI [30] | TGI [31] | TGI [32] | TGI [33] | TGI [34] | TGI [38] | TGI [39] | TGI [42] | TGI [46] | TGI [47] | TGI [49] | TGI [51] | TGI [52] | TGI [53] | TGI [55]
8.23 µM: TGI [20] | TGI [56]
6.99 µM: TGI [4] | TGI [43]
36.9 µM: TGI [11]
32.5 µM: TGI [48]
20 µM: TGI [36]
6.62 µM: TGI [21]
10.8 µM: TGI [7]
7.67 µM: TGI [19]
44.9 µM: TGI [6]
12.3 µM: TGI [37]
